Test results: the supplement of paper PMC10307832

Legend:
Assay in all cases: relative viability (nuclei count vs DMSO), 5 days (fraction); higher = more cells survive
[1] = test system: NCI-H441
Outline: (§1)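 For relative viability, nuclei counts in treated wells were divided by those in vehicle wells. Lung cancer cell lines had been pin-tool dosed in 1536-well plates the day after seeding and cultured for 5 days, then fixed and stained in one step (final 0.05% Triton X-100, 1% formaldehyde, 1 ug/ml Hoechst) and imaged at 4×. Doses were one drug alone or a fixed anchor-drug dose plus five library-drug doses (not always all listed) in √10 steps, and values are duplicate-plate medians.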

[2] = test system: SW 1573
Outline: as §1

[3] = test system: NCI-H1793
Outline: as §1

[4] = test system: LC-2-ad
Outline: as §1

[5] = test system: NCI-H1734
Outline: as §1

[6] = test system: NCI-H838
Outline: as §1

[7] = test system: EPLC-272H
Outline: as §1

[8] = test system: NCI-H647
Outline: as §1

[9] = test system: NCI-H1915
Outline: as §1

[10] = test system: HCC-15
Outline: as §1

[11] = test system: UMC-11
Outline: as §1

[12] = test system: NCI-H2009
Outline: as §1

[13] = test system: A-427
Outline: as §1

[14] = test system: NCI-H322M
Outline: as §1

[15] = test system: NCI-H2023
Outline: as §1

[16] = test system: NCI-H2347
Outline: as §1

[17] = test system: NCI-H1944
Outline: as §1

[18] = test system: RERF-LC-KJ
Outline: as §1

[19] = test system: LK-2
Outline: as §1

Cc1csc(=NC2CCCCC2)n1/N=C/c1ccc(O)c(O)c1O [MIM1] + CC1(C)CCC(c2ccc(Cl)cc2)=C(CN2CCN(c3ccc(C(=O)NS(=O)(=O)c4ccc(N[C@H](CCN5CCOCC5)CSc5ccccc5)c(S(=O)(=O)C(F)(F)F)c4)cc3)CC2)C1 [Navitoclax] (partner 0.5 µM)
relative viability ([1]; first compound 0.2 µM): 0.58 | relative viability ([1]; first compound 0.6325 µM): 0.912 | relative viability ([1]; first compound 2 µM): 0.706 | relative viability ([1]; first compound 6.325 µM): 0.577 | relative viability ([1]; first compound 20 µM): 0.24 | relative viability ([2]; first compound 0.2 µM): 0.973 | relative viability ([2]; first compound 0.6325 µM): 0.967 | relative viability ([2]; first compound 2 µM): 1.08 | relative viability ([2]; first compound 6.325 µM): 0.909 | relative viability ([2]; first compound 20 µM): 0.549 | relative viability ([3]; first compound 0.2 µM): 0.438 | relative viability ([3]; first compound 0.6325 µM): 0.546 | relative viability ([3]; first compound 2 µM): 0.436 | relative viability ([3]; first compound 6.325 µM): 0.475 | relative viability ([3]; first compound 20 µM): 0.47 | relative viability ([4]; first compound 0.2 µM): 0.491 | relative viability ([4]; first compound 0.6325 µM): 0.516 | relative viability ([4]; first compound 2 µM): 0.498 | relative viability ([4]; first compound 6.325 µM): 0.251 | relative viability ([4]; first compound 20 µM): 0.135 | relative viability ([5]; first compound 0.2 µM): 0.807 | relative viability ([5]; first compound 0.6325 µM): 0.908 | relative viability ([5]; first compound 2 µM): 0.783 | relative viability ([5]; first compound 6.325 µM): 0.467 | relative viability ([5]; first compound 20 µM): 0.202 | relative viability ([6]; first compound 0.2 µM): 1.12 | relative viability ([6]; first compound 0.6325 µM): 1.3 | relative viability ([6]; first compound 2 µM): 0.994 | relative viability ([6]; first compound 6.325 µM): 0.902 | relative viability ([6]; first compound 20 µM): 0.501 | relative viability ([7]; first compound 0.2 µM): 1.11 | relative viability ([7]; first compound 0.6325 µM): 1.04 | relative viability ([7]; first compound 2 µM): 1.2 | relative viability ([7]; first compound 6.325 µM): 1 | relative viability ([7]; first compound 20 µM): 0.199 | relative viability ([8]; first compound 0.2 µM): 1.2 | relative viability ([8]; first compound 0.6325 µM): 0.989 | relative viability ([8]; first compound 2 µM): 0.742 | relative viability ([8]; first compound 6.325 µM): 0.809 | relative viability ([8]; first compound 20 µM): 0.617 | relative viability ([9]; first compound 0.2 µM): 0.791 | relative viability ([9]; first compound 0.6325 µM): 0.696 | relative viability ([9]; first compound 2 µM): 0.781 | relative viability ([9]; first compound 6.325 µM): 0.62 | relative viability ([9]; first compound 20 µM): 0.656 | relative viability ([10]; first compound 0.2 µM): 0.682 | relative viability ([10]; first compound 0.6325 µM): 0.693 | relative viability ([10]; first compound 2 µM): 0.689 | relative viability ([10]; first compound 6.325 µM): 0.42 | relative viability ([10]; first compound 20 µM): 0.382 | relative viability ([11]; first compound 0.2 µM): 0.32 | relative viability ([11]; first compound 0.6325 µM): 0.298 | relative viability ([11]; first compound 2 µM): 0.36 | relative viability ([11]; first compound 6.325 µM): 0.208 | relative viability ([11]; first compound 20 µM): 0.145 | relative viability ([12]; first compound 0.2 µM): 1.14 | relative viability ([12]; first compound 0.6325 µM): 1.19 | relative viability ([12]; first compound 2 µM): 1.22 | relative viability ([12]; first compound 6.325 µM): 0.999 | relative viability ([12]; first compound 20 µM): 0.826 | relative viability ([13]; first compound 0.2 µM): 0.972 | relative viability ([13]; first compound 0.6325 µM): 1.02 | relative viability ([13]; first compound 2 µM): 0.981 | relative viability ([13]; first compound 6.325 µM): 0.986 | relative viability ([13]; first compound 20 µM): 0.555 | relative viability ([14]; first compound 0.2 µM): 1.13 | relative viability ([14]; first compound 0.6325 µM): 1.29 | relative viability ([14]; first compound 2 µM): 1.31 | relative viability ([14]; first compound 6.325 µM): 1.13 | relative viability ([14]; first compound 20 µM): 1.37 | relative viability ([15]; first compound 0.2 µM): 0.992 | relative viability ([15]; first compound 0.6325 µM): 1.03 | relative viability ([15]; first compound 2 µM): 0.91 | relative viability ([15]; first compound 6.325 µM): 0.683 | relative viability ([15]; first compound 20 µM): 0.432 | relative viability ([16]; first compound 0.2 µM): 0.661 | relative viability ([16]; first compound 0.6325 µM): 0.776 | relative viability ([16]; first compound 2 µM): 0.812 | relative viability ([16]; first compound 6.325 µM): 0.544 | relative viability ([16]; first compound 20 µM): 0.408 | relative viability ([17]; first compound 0.2 µM): 0.985 | relative viability ([17]; first compound 0.6325 µM): 1.04 | relative viability ([17]; first compound 2 µM): 0.845 | relative viability ([17]; first compound 6.325 µM): 0.938 | relative viability ([17]; first compound 20 µM): 1.11 | relative viability ([18]; first compound 0.2 µM): 0.848 | relative viability ([18]; first compound 0.6325 µM): 0.725 | relative viability ([18]; first compound 2 µM): 0.534 | relative viability ([18]; first compound 6.325 µM): 0.568 | relative viability ([18]; first compound 20 µM): 0.245 | relative viability ([19]; first compound 0.2 µM): 0.924 | relative viability ([19]; first compound 0.6325 µM): 0.847 | relative viability ([19]; first compound 2 µM): 0.657 | relative viability ([19]; first compound 6.325 µM): 1.09 | relative viability ([19]; first compound 20 µM): 0.209
